This note sets out measurements from patent US11782064B2, “Methods for simultaneous measurement of multiple biological signals from spectrally identical fluorescent reporters” (Massachusetts Institute of Technology, priority 2019, dated 2023).

This assay deals with cultured mouse hippocampal neurons. As to the kind of experiment: Multiplexed imaging of four or five reporters under forskolin, PMA or DHPG. The assay is classed as cell-based. As to the method:
Live neuron imaging was performed on a spinning disk confocal microscope (a Yokogawa® CSU-W1 Confocal Scanner Unit on a Nikon® Eclipse T1 microscope) equipped with a 40×1.15 NA water immersion objective (Nikon® MRD77410) and a Zyla® PLUS 4.2 Megapixel camera controlled by NIS-Elements® AR software. The filter set for GFP was used for imaging GFP intensity-based reporters (GCaMP6f and cAMPr), and the filter set for GFP and the 405 nm excitation filter was used for imaging 488 nm/405 nm excitation ratiometric reporters (ExRaiAKAR and ExRaiCKAR). The filter set for RFP was used for imaging RFP intensity-based reporters (RAB_EKARev). For electrophysiological characterizations of GCaMP6f and S1-GCaMP6f (FIGS. 8D-G, 9A-Q), neurons were recorded in the GFP emission channel at a single focal plane at 20 milliseconds per frame (50 Hz). In the characterization and spatially multiplexed imaging experiments in FIGS. 9R-V, 10D-10G, 10M-10O, neurons were recorded in the GFP emission channel at a single focal plane at 50 milliseconds per frame (20 Hz). […]

With `N[C@H](C(=O)O)c1cc(O)cc(O)c1` [DHPG, (S)-3,5-Dihydroxyphenylglycine], the “signaling activities induced in neurons” value (100 μM DHPG for 3 minutes) was “produced increases in cAMP, PKA, PKC, and ERK levels”.

With `CCCCCCCCCCCCCC(=O)O[C@@H]1[C@@H](C)[C@@]2(O)[C@@H](C=C(CO)C[C@]3(O)C(=O)C(C)=C[C@@H]23)[C@@H]2C(C)(C)[C@]12OC(C)=O` [PMA, phorbol 12-myristate 13-acetate], the “signaling activities induced in neurons” value (100 ng/mL PMA for 3 minutes) was “increases of PKC activity”.
